{
  "source": "patent US8093393B2",
  "about": "“Cationic ceramides, and analogs thereof, and their use for preventing or treating cancer” (MUSC Foundation for Research Development, priority 2004, dated 2012)",
  "key": {"UM-SCC-22A cells": {"system": "UM-SCC-22A cells", "assay": "MTT cell survival assay and isobologram studies", "type": "cell-based, human", "conditions": "for pIC50: UM-SCC-22A, read-out: IC50, cell growth", "experimental": "Human head and neck cancer cell lines UM-SCC-1 (retromolar trigone/floor of the mouth), UM-SCC-12 (primary tumor of larynx), and UM-SCC-22A cells were obtained from clinical samples. Cells were grown in DMEM containing 10% FCS and 1% penicillin/streptomycin at 37° C. in 5% CO2.\nMTT cell survival assay and isobologram studies. The concentrations of agents that inhibited cell growth by 50% (IC50) were determined from cell survival plots obtained by MTT. Triplicate wells were used for each treatment. The final concentration of DMSO (a solvent for conventional ceramides, GMZ and DOX) in the growth medium was less than 0.1% (v/v) which has no effect on cell growth and survival. Pyridinium ceramides were dissolved in sterile water or growth medium. In short, after cells (5-10×10^3/well) were seeded in 96-well-plates for 24 hr, they were treated with increasing concentrations of ceramide analogs for an additional 48 or 96 hr. For combination treatments, ceramides and chemotherapeutic agents (gemcitabine (GMZ) or doxorubicin (DOX)) were added to the growth medium simultaneously during treatment. Isobologram plots were then constructed using IC50 values of the two agents alone or in combination obtained from MTT assays. A straight line joining points on x- and y-axes represent the IC50 concentrations of two agents, and the points representing the IC50 concentrations of the combination of the two agents are represented as scatter plots on the same graphs. In general, the points that fall within the left of the straight line indicate synergism. The experiments were performed as triplicates in at least 3 independent experiments.\nHuman head and neck cancer cell lines UM-SCC-1 (retromolar trigone/floor of the mouth), UM-SCC-14A (SCC of anterior floor of the mouth), and UM-SCC-22A (SCC of hypopharynx) cells were obtained. Cells were grown in DMEM containing 10% FCS and 1% penicillin/streptomycin at 37° C. in 5% CO2.\nMTT cell survival assay and isobologram studies. The concentrations of agents that inhibited cell growth by 50% (IC50) were determined from cell survival plots obtained by MTT assays. […] In general, the points that fall within the left of the straight line indicate synergism. The experiments were performed as triplicates in at least 3 independent experiments. Error bars represent standard deviations."}, "[1]": {"conditions": "IP 40 mg/ml", "experimental": "The determination of MTD, and pharmacokinetic parameters, such as clearance from the serum, and bioaccumulation in various organs, of L-t-C6-Pyr-Cer in vivo. A) MTD of L-t-C6-Pyr-Cer was determined in dose escalation studies, in which BALB/c mice were treated (by IP injections) with increasing concentrations of the compound (10-150 mg/kg), dissolved in sterile saline solution, for 24 hr. […] B and C) The levels of L-t-C6-Pyr-Cer in the serum (B) or in the vital organs (C) of the BALB/c mice were measured by LC/MS after IP injection of the compound for various time points. The experiments were performed in two independent trials as duplicates, and error bars represent standard deviations.\nAnimal studies. […] The maximum tolerated dose (MTD) of L-t-C6-Pyr-Cer was determined by dose escalation studies. In short, 7-week-old BALB/c mice were treated with increasing concentrations of the compound for various time intervals. Possible toxicity of the compound to the vital organs of the animals was analyzed by both gross examination, and histopathology. The accumulation of the compound in vital organs and in the serum was also determined by LC/MS as described previously Koybasi S et al. J Biol Chem 2004; 279:44311-44319)."}, "UM-SCC-1 cells": {"system": "UM-SCC-1 cells", "assay": "MTT cell survival assay", "type": "cell-based, human", "conditions": "UM-SCC-1, 48 hr; read-out: IC50, growth", "method": "Cell lines and culture conditions. […] Cells were grown in DMEM containing 10% FCS and 1% penicillin/streptomycin at 37° C. in 5% CO2. The Wi-38 human lung fibroblasts were obtained from American Type Culture Collection, and were grown in DMEM as described above. Adult human epidermal keratinocytes were purchased from Cascade Biologics, and were maintained in EpiLife medium with growth supplements as described by the manufacturer.\nMTT cell survival assay and isobologram studies. […] Triplicate wells were used for each treatment. The final concentration of DMSO (a solvent for conventional ceramides, GMZ and DOX) in the growth medium was less than 0.1% (v/v) which has no effect on cell growth and survival. Pyridinium ceramides were dissolved in sterile water or growth medium. In short, after cells (5-10×10^3/well) were seeded in 96-well-plates for 24 hr, they were treated with increasing concentrations of ceramide analogs for an additional 48 or 96 hr. For combination treatments, ceramides and chemotherapeutic agents (gemcitabine (GMZ) or doxorubicin (DOX)) were added to the growth medium simultaneously during treatment. Isobologram plots were then constructed using IC50 values of the two agents alone or in combination obtained from MTT assays. […]"}, "HNSCC tumors": {"system": "HNSCC tumors", "assay": "Endogenous ceramide and SM levels in HNSCC tumors, LC/MS", "parameters": "species or system SCID mice", "conditions": "mouse, in vivo", "excerpt": "FIG. 28. […] The levels of C14-, C16-, C18-, C24-, C24:1-, dihydro-C16-ceramides, and sphingosine are shown in (A), and C18:1-, C20-ceramides, and dihydro-sphingosine, and sphingosine-1-phosphate levels are shown in (B). The levels of C16-, C22-, C-24 and C24:1-SM levels are shown in (C), and C14-, C18-, C18:1-, C20, C20:1, and C22:1 SM levels are shown in (D)."}},
  "note": "pIC50: −log10 of the molar value. Where two headings read alike, the source gives them in different places.",
  "data": [
    {"smiles": "CCCCCCCCCCCCC/C=C/[C@H](O)[C@H](CO)NC(=O)CCCCC[n+]1ccccc1.[Br-]", "note": "[LCL124, L-threo-2-N-[6′-(1″-Pyridinium)-hexanoyl]-sphingosine Bromide]", "values": [
      {"measurement": "interaction with GMZ, isobologram", "setting": "UM-SCC-22A cells; UM-SCC-22A, 100, 250 and 500 nM with GMZ, 48 hr", "value": "decreased growth synergistically"},
      {"measurement": "pIC50", "setting": "UM-SCC-22A cells; 48 hr, listed as L-t-C6-Pyr-Cer", "value": "5.70 to 6.00"},
      {"measurement": "pIC50", "setting": "UM-SCC-22A cells; 48 hr, listed as L-th-C6-Pyr-Cer", "value": "~6.00"},
      {"measurement": "pIC50", "setting": "UM-SCC-22A cells; 96 hr, DMEM, listed as L-th-C6-Pyr-Cer", "value": "~6.52"},
      {"measurement": "accumulation in the brain or heart", "setting": "[1]", "value": "no significant accumulation"},
      {"measurement": "accumulation in the kidneys", "setting": "[1]", "value": "at high levels in the kidneys within 8-24 hr"},
      {"measurement": "time to clearance from the serum", "setting": "[1]", "value": "≤ 4", "unit": "h"},
      {"measurement": "serum level", "setting": "[1]; 0.5 hr", "value": "4,500 pmol/0.1 ml serum"},
      {"measurement": "serum level", "setting": "[1]; 2 hr", "value": "6,500 pmol/0.1 ml serum"},
      {"measurement": "level in the intestines", "setting": "[1]; after 5 min", "value": "about 600 pmol/mg protein"},
      {"measurement": "level in the liver", "setting": "[1]; after 2 hr", "value": "~500", "unit": "pmol/mg protein"},
      {"measurement": "accumulation in the lungs", "setting": "[1]; after 24 hr", "value": "some accumulation"},
      {"measurement": "pIC50", "setting": "UM-SCC-1 cells", "value": "5.70 to 6.00"},
      {"measurement": "effect on endogenous SM levels", "setting": "HNSCC tumors", "value": "no significant changes were observed"},
      {"measurement": "effect on endogenous ceramides in tumor site", "setting": "HNSCC tumors", "value": "did not cause any sustained elevation of endogenous ceramides"}
    ]}
  ]
}
